Measurements taken from patent publication US11066396B2 (priority 2016, dated 2021).

Key:
[1] = target: HDAC8 (Homo sapiens (Human), UniProt Q9BY41); conditions: read-out: HDAC8 IC50
[2] = target: HDAC1 (Homo sapiens (Human), UniProt Q13547); conditions: read-out: HDAC1 IC50
HDAC1, sequence (Q13547 whole entry): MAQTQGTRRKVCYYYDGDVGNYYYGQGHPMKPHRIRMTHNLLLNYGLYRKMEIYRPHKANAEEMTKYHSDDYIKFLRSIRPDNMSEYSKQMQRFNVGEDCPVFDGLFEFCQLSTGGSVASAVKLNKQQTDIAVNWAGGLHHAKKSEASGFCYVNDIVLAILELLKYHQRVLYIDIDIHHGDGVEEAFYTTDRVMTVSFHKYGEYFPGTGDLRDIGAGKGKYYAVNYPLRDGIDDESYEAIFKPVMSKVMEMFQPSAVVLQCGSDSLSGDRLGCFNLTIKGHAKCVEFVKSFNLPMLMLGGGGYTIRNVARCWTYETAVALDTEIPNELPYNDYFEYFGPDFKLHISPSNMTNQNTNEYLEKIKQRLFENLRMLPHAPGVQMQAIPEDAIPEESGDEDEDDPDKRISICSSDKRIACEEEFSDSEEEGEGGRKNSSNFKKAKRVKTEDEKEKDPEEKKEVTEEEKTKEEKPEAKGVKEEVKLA

HDAC8, sequence (Q9BY41 whole entry): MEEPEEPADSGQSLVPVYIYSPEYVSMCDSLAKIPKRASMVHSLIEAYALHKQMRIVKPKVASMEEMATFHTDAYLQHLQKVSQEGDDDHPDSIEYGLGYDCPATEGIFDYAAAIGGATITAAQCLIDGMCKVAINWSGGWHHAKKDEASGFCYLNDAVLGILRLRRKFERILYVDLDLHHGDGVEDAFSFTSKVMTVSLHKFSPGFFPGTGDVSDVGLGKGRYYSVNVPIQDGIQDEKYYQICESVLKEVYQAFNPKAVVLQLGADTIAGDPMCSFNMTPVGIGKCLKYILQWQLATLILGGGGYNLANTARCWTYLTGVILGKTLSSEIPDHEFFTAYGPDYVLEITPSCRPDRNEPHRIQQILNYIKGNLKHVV

Structure (SMILES)	IC50 [1] [nM]	IC50 [2] [nM]
Cc1nc2cc(F)ccc2n1Cc1ccc(-c2noc(C(F)(F)F)n2)cc1F [Example 29, 3-(3-Fluoro-4-((5-fluoro-2-methyl-1H-benzo[d]imidazol-1-yl)methyl)phenyl)-5-(trifluoromethyl)-1,2,4-oxadiazole]	8200	1600
O=C(N1CCOCC1)N(Cc1ccc(-c2noc(C(F)(F)F)n2)cc1)c1cccc(C(F)(F)F)c1 [Example 32, N-(4-(5-(Trifluoromethyl)-1,2,4-oxadiazol-3-yl)benzyl)-N-(3-(trifluoromethyl)phenyl)morpholine-4-carboxamide]	2300	440
CN1CCN(c2ccc(-c3noc(C(F)(F)F)n3)cc2)C(c2ccccc2)C1 (stereo not shown) [Example 33, 3-(4-(4-Methyl-2-phenylpiperazin-1-yl)phenyl)-5-(trifluoromethyl)-1,2,4-oxadiazole]	3900	5300
O=C1COC[C@@H](c2nc(-c3ccccn3)no2)N1c1ccc(-c2noc(C(F)(F)F)n2)cc1 [Example 34, (S)-5-(3-(Pyridin-2-yl)-1,2,4-oxadiazol-5-yl)-4-(4-(5-(trifluoromethyl)-1,2,4-oxadiazol-3-yl)phenyl)morpholin-3-one]	280	64
O=C1C(C2CCOCC2)NC[C@@H](c2cc(F)cc(F)c2)N1c1ccc(-c2noc(C(F)(F)F)n2)cn1 (stereo partly drawn) [Example 38, (6R)-6-(3,5-difluorophenyl)-3-(tetrahydro-2H-pyran-4-yl)-1-(5-(5-(trifluoromethyl)-1,2,4-oxadiazol-3-yl)pyridin-2-yl)piperazin-2-one]	16000	4300
Cc1noc([C@@H]2COCC(=O)N2c2ccc(-c3noc(C(F)(F)F)n3)cc2)n1 [Example 47, (S)-5-(3-methyl-1,2,4-oxadiazol-5-yl)-4-(4-(5-(trifluoromethyl)-1,2,4-oxadiazol-3-yl)phenyl)morpholin-3-one]	3000	1500
CC(C)c1ncc(C(=O)N(Cc2ccc(-c3noc(C(F)(F)F)n3)cn2)c2cccc(F)c2)cn1 [Example 53, N-(3-fluorophenyl)-2-isopropyl-N-((5-(5-(trifluoromethyl)-1,2,4-oxadiazol-3-yl)pyridin-2-yl)methyl)pyrimidine-5-carboxamide]	1800	170
Cc1nccnc1C(=O)N(Cc1ccc(-c2noc(C(F)(F)F)n2)cn1)c1cccc(F)c1 [Example 56, N-(3-fluorophenyl)-3-methyl-N-((5-(5-(trifluoromethyl)-1,2,4-oxadiazol-3-yl)pyridin-2-yl)methyl)pyrazine-2-carboxamide]	3100	250
Cc1cc(CC(=O)N(Cc2ccc(-c3noc(C(F)(F)F)n3)cn2)c2cccc(F)c2)on1 [Example 59, N-(3-fluorophenyl)-2-(3-methylisoxazol-5-yl)-N-((5-(5-(trifluoromethyl)-1,2,4-oxadiazol-3-yl)pyridin-2-yl)methyl)acetamide]	1500	210
Cc1nonc1CC(=O)N(Cc1ccc(-c2noc(C(F)(F)F)n2)cn1)c1cccc(F)c1 [Example 62, N-(3-fluorophenyl)-2-(4-methyl-1,2,5-oxadiazol-3-yl)-N-((5-(5-(trifluoromethyl)-1,2,4-oxadiazol-3-yl)pyridin-2-yl)methyl)acetamide]	3500	480
O=C(N(Cc1ccc(-c2noc(C(F)(F)F)n2)cn1)c1cccc(F)c1)C1(CN2CCOCC2)CC1 [Example 65, N-(3-fluorophenyl)-1-(morpholinomethyl)-N-((5-(5-(trifluoromethyl)-1,2,4-oxadiazol-3-yl)pyridin-2-yl)methyl)cyclopropane-1-carboxamide]	3000	240
CC(=O)N1CCN(CC(=O)N(Cc2ccc(-c3noc(C(F)(F)F)n3)cc2)c2cccc(C(F)(F)F)c2)CC1 [Example 69, 2-(4-acetylpiperazin-1-yl)-N-(4-(5-(trifluoromethyl)-1,2,4-oxadiazol-3-yl)benzyl)-N-(3-(trifluoromethyl)phenyl)acetamide]	2600	1300
O=C(Cn1ncccc1=O)N(Cc1ccc(-c2noc(C(F)(F)F)n2)cc1)c1cccc(C(F)(F)F)c1 [Example 70, 2-(6-oxopyridazin-1(6H)-yl)-N-(4-(5-(trifluoromethyl)-1,2,4-oxadiazol-3-yl)benzyl)-N-(3-(trifluoromethyl)phenyl)acetamide]	2200	960
O=C(c1cncnc1)N(Cc1ccc(-c2noc(C(F)(F)F)n2)cc1)c1cccc(C(F)(F)F)c1 [Example 71, N-(4-(5-(trifluoromethyl)-1,2,4-oxadiazol-3-yl)benzyl)-N-(3-(trifluoromethyl)phenyl)pyrimidine-5-carboxamide]	2800	670
O=C(CCCn1cncn1)N(Cc1ccc(-c2noc(C(F)(F)F)n2)cc1)c1cccc(C(F)(F)F)c1 [Example 72, 4-(1H-1,2,4-triazol-1-yl)-N-(4-(5-(trifluoromethyl)-1,2,4-oxadiazol-3-yl)benzyl)-N-(3-(trifluoromethyl)phenyl)butanamide]	2000	1900
Cc1nnc(CC(=O)N(Cc2ccc(-c3noc(C(F)(F)F)n3)cc2)c2cccc(C(F)(F)F)c2)n1C [Example 75, 2-(4,5-dimethyl-4H-1,2,4-triazol-3-yl)-N-(4-(5-(trifluoromethyl)-1,2,4-oxadiazol-3-yl)benzyl)-N-(3-(trifluoromethyl)phenyl)acetamide]	2300	860
O=C(Cn1ccnn1)N(Cc1ccc(-c2noc(C(F)(F)F)n2)cc1)c1cccc(C(F)(F)F)c1 [Example 76, 2-(1H-1,2,3-triazol-1-yl)-N-(4-(5-(trifluoromethyl)-1,2,4-oxadiazol-3-yl)benzyl)-N-(3-(trifluoromethyl)phenyl)acetamide]	2100	1000
Cc1nc(C)n(CC(=O)N(Cc2ccc(-c3noc(C(F)(F)F)n3)cc2)c2cccc(C(F)(F)F)c2)n1 [Example 77, 2-(3,5-dimethyl-1H-1,2,4-triazol-1-yl)-N-(4-(5-(trifluoromethyl)-1,2,4-oxadiazol-3-yl)benzyl)-N-(3-(trifluoromethyl)phenyl)acetamide]	3300	1400
CC(=O)NCCC(=O)N(Cc1ccc(-c2noc(C(F)(F)F)n2)cc1)c1cccc(C(F)(F)F)c1 [Example 78, 3-acetamido-N-(4-(5-(trifluoromethyl)-1,2,4-oxadiazol-3-yl)benzyl)-N-(3-(trifluoromethyl)phenyl)propanamide]	2300	890
O=C(CC1COC1)N(Cc1ccc(-c2noc(C(F)(F)F)n2)cc1)c1cccc(C(F)(F)F)c1 [Example 80, 2-(oxetan-3-yl)-N-(4-(5-(trifluoromethyl)-1,2,4-oxadiazol-3-yl)benzyl)-N-(3-(trifluoromethyl)phenyl)acetamide]	2800	1600
O=C(CN1CCS(=O)(=O)CC1)N(Cc1ccc(-c2noc(C(F)(F)F)n2)cc1)c1cccc(C(F)(F)F)c1 [Example 81, 2-(1,1-dioxidothiomorpholino)-N-(4-(5-(trifluoromethyl)-1,2,4-oxadiazol-3-yl)benzyl)-N-(3-(trifluoromethyl)phenyl)acetamide]	4900	1300
CN(C)CC(=O)N(Cc1ccc(-c2noc(C(F)(F)F)n2)cc1)c1cccc(C(F)(F)F)c1 [Example 83, 2-(dimethylamino)-N-(4-(5-(trifluoromethyl)-1,2,4-oxadiazol-3-yl)benzyl)-N-(3-(trifluoromethyl)phenyl)acetamide]	3500	1200
O=C(C1CCOCC1)N(Cc1ccc(-c2noc(C(F)(F)F)n2)cc1)c1cccc(C(F)(F)F)c1 [Example 85, N-(4-(5-(trifluoromethyl)-1,2,4-oxadiazol-3-yl)benzyl)-N-(3-(trifluoromethyl)phenyl)tetrahydro-2H-pyran-4-carboxamide]	2300	1200
COCCn1nc(C(=O)N(Cc2ccc(-c3noc(C(F)(F)F)n3)cc2)c2cccc(C(F)(F)F)c2)ccc1=O [Example 86, 1-(2-methoxyethyl)-6-oxo-N-(4-(5-(trifluoromethyl)-1,2,4-oxadiazol-3-yl)benzyl)-N-(3-(trifluoromethyl)phenyl)-1,6-dihydropyridazine-3-carboxamide]	3300	1200
Cn1nc(C(=O)N(Cc2ccc(-c3noc(C(F)(F)F)n3)cc2)c2cccc(C(F)(F)F)c2)ccc1=O [Example 88, 1-methyl-6-oxo-N-(4-(5-(trifluoromethyl)-1,2,4-oxadiazol-3-yl)benzyl)-N-(3-(trifluoromethyl)phenyl)-1,6-dihydropyridazine-3-carboxamide]	3000	940
O=C(CCn1cncn1)N(Cc1ccc(-c2noc(C(F)(F)F)n2)cc1)c1cccc(C(F)(F)F)c1 [Example 89, 3-(1H-1,2,4-triazol-1-yl)-N-(4-(5-(trifluoromethyl)-1,2,4-oxadiazol-3-yl)benzyl)-N-(3-(trifluoromethyl)phenyl)propanamide]	2000	1100
CC(C)C(=O)N1CCC(C(=O)N(Cc2ccc(-c3noc(C(F)(F)F)n3)cc2)c2cccc(C(F)(F)F)c2)CC1 [Example 90, 1-isobutyryl-N-(4-(5-(trifluoromethyl)-1,2,4-oxadiazol-3-yl)benzyl)-N-(3-(trifluoromethyl)phenyl)piperidine-4-carboxamide]	2500	1400
CC(C)(C)OC(=O)N(Cc1ccc(-c2noc(C(F)(F)F)n2)cn1)c1cccc(F)c1 [Example 91, tert-butyl (3-fluorophenyl)((5-(5-(trifluoromethyl)-1,2,4-oxadiazol-3-yl)pyridin-2-yl)methyl)carbamate]	19000	1300
CN1CCN(CC(=O)N(Cc2ccc(-c3noc(C(F)(F)F)n3)cc2)c2cccc(C(F)(F)F)c2)CC1 [Example 93, 2-(4-methylpiperazin-1-yl)-N-(4-(5-(trifluoromethyl)-1,2,4-oxadiazol-3-yl)benzyl)-N-(3-(trifluoromethyl)phenyl)acetamide]	2200	990
